{
  "source": "patent US20070071683A1",
  "about": "“Ultrasonic concentration of carrier particles” (The Regents of the University of California, priority 2005, published 2007)",
  "origin": "cited, not measured here",
  "system": "tumor",
  "conditions": "paclitaxel alone",
  "data": [
    {"smiles": "CC(=O)O[C@H]1C(=O)[C@@]2(C)[C@H]([C@H](OC(=O)c3ccccc3)[C@]3(O)C[C@H](OC(=O)[C@H](O)[C@@H](NC(=O)c4ccccc4)c4ccccc4)C(C)=C1C3(C)C)[C@]1(OC(C)=O)CO[C@@H]1C[C@@H]2O", "note": "[paclitaxel]", "values": [
      {"measurement": "effect on tumor volume", "result": "did not affect tumor volume"}
    ]}
  ]
}
